Each molecule was assayed against T1, GST-tagged-Wee1 kinase (Homo sapiens, UniProt P30291) (assay: Wee1 time-resolved fluorescence equilibrium binding assay (displacement of Oregon Green-labeled ATP-competitive kinase probe)). Conditions: read-out: Wee-1 inhibition (Ki).
T1 construct: purchased Carnabio (Carna Biosciences) 05-177
How it was run: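 Time-resolved fluorescence equilibrium binding with GST-Wee1, measuring displacement of a rapidly reversible Oregon Green-labelled ATP-competitive probe by competitive inhibitors; values reported as Ki.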

T1 sequence (P30291 whole entry): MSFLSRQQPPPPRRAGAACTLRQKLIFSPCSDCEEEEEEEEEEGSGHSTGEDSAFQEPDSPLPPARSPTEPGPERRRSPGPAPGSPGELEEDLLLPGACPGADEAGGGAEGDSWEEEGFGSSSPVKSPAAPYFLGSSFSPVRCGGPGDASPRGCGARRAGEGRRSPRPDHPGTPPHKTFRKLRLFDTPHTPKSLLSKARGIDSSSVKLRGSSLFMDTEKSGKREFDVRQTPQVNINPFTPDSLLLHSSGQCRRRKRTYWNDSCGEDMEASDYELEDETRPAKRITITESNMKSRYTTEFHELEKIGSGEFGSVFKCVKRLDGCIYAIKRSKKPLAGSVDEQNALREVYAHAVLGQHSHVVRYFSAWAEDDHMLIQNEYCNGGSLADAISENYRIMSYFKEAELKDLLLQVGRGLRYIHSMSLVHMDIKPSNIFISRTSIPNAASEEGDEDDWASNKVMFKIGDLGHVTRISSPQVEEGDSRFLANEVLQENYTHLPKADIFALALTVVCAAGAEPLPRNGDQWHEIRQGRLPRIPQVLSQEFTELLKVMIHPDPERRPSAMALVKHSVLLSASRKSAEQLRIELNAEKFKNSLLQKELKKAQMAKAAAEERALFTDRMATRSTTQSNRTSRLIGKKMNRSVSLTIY

| Compound | Ki |
| --- | --- |
| O=c1c2cnc(Nc3ccc(N4CCN5CCCCC5C4)cc3)nc2n2ccnc2n1-c1ccccc1Cl (stereo not drawn) [Example 208, 6-(2-chlorophenyl)-2-{[4-(octahydro-2H-pyrido[1,2-a]pyrazin-2-yl)phenyl]amino}imidazo[1,2-a]pyrimido[5,4-e]pyrimidin-5(6H)-one] | < 0.01 µM |
| CN1Cc2cc(Nc3ncc4c(=O)n(-c5c(F)cccc5Cl)c5nccn5c4n3)ccc2C1(C)C [Example 209, 6-(2-chloro-6-fluorophenyl)-2-[(1,1,2-trimethyl-2,3-dihydro-1H-isoindol-5-yl)amino]imidazo[1,2-a]pyrimido[5,4-e]pyrimidin-5(6H)-one] | < 0.01 µM |
| CN1C(C)(C)c2ccc(Nc3ncc4c(=O)n(-c5c(F)cccc5Cl)c5nccn5c4n3)cc2C1(C)C [Example 210, 6-(2-chloro-6-fluorophenyl)-2-[(1,1,2,3,3-pentamethyl-2,3-dihydro-1H-isoindol-5-yl)amino]imidazo[1,2-a]pyrimido[5,4-e]pyrimidin-5(6H)-one] | < 0.01 µM |
| O=c1c2cnc(Nc3ccc(N4CCN(C5COC5)CC4)cc3)nc2n2ccnc2n1-c1ccccc1Cl [Example 211, 6-(2-chlorophenyl)-2-({4-[4-(oxetan-3-yl)piperazin-1-yl]phenyl}amino)imidazo[1,2-a]pyrimido[5,4-e]pyrimidin-5(6H)-one] | 0.01 to 0.1 µM |
| CN1Cc2cc(Nc3ncc4c(=O)n(-c5c(Cl)cc(F)cc5Cl)c5nccn5c4n3)ccc2C(C)(C)C1 [Example 212, 6-(2,6-dichloro-4-fluorophenyl)-2-[(2,4,4-trimethyl-1,2,3,4-tetrahydroisoquinolin-7-yl)amino]imidazo[1,2-a]pyrimido[5,4-e]pyrimidin-5(6H)-one] | < 0.01 µM |
| O=c1cn[nH]c2ccc(Nc3ncc4c(=O)n(-c5c(Cl)cccc5Cl)c5nccn5c4n3)cc12 [Example 213, 6-(2,6-dichlorophenyl)-2-[(4-oxo-1,4-dihydrocinnolin-6-yl)amino]imidazo[1,2-a]pyrimido[5,4-e]pyrimidin-5(6H)-one] | < 0.01 µM |
| CC(=O)N1CCN(c2ccc(Nc3ncc4c(=O)n(-c5c(Cl)cccc5Cl)c5nccn5c4n3)cc2)CC1 [Example 214, 2-{[4-(4-acetylpiperazin-1-yl)phenyl]amino}-6-(2,6-dichlorophenyl)imidazo[1,2-a]pyrimido[5,4-e]pyrimidin-5(6H)-one] | < 0.01 µM |
| CN(C)C1CCN(c2ccc(Nc3ncc4c(=O)n(-c5c(Cl)cccc5Cl)c5nccn5c4n3)cc2)CC1 [Example 215, 6-(2,6-dichlorophenyl)-2-({4-[4-(dimethylamino)piperidin-1-yl]phenyl}amino)imidazo[1,2-a]pyrimido[5,4-e]pyrimidin-5(6H)-one] | < 0.01 µM |
| COC(=O)c1ccc(Nc2ncc3c(=O)n(-c4c(Cl)cccc4Cl)c4nccn4c3n2)cc1 [Example 216, methyl 4-{[6-(2,6-dichlorophenyl)-5-oxo-5,6-dihydroimidazo[1,2-a]pyrimido[5,4-e]pyrimidin-2-yl]amino}benzoate] | < 0.01 µM |
| O=c1c2cnc(Nc3cc(Cl)c(N4CCNCC4)c(Cl)c3)nc2n2ccnc2n1-c1ccccc1Cl [Example 217, 6-(2-chlorophenyl)-2-{[3,5-dichloro-4-(piperazin-1-yl)phenyl]amino}imidazo[1,2-a]pyrimido[5,4-e]pyrimidin-5(6H)-one] | 0.01 to 0.1 µM |
| O=c1c2cnc(Nc3ccc(-c4cn5ccccc5n4)cc3)nc2n2ccnc2n1-c1ccccc1Cl [Example 218, 6-(2-chlorophenyl)-2-{[4-(imidazo[1,2-a]pyridin-2-yl)phenyl]amino}imidazo[1,2-a]pyrimido[5,4-e]pyrimidin-5(6H)-one] | 0.01 to 0.1 µM |
| CC(C)N1C(=O)CSC1c1ccc(Nc2ncc3c(=O)n(-c4ccccc4Cl)c4nccn4c3n2)cc1 (stereo not drawn) [Example 219, 6-(2-chlorophenyl)-2-({4-[4-oxo-3-(propan-2-yl)-1,3-thiazolidin-2-yl]phenyl}amino)imidazo[1,2-a]pyrimido[5,4-e]pyrimidin-5(6H)-one] | < 0.01 µM |
| O=c1c2cnc(Nc3ccc(-c4cn5c(n4)SCC5)cc3)nc2n2ccnc2n1-c1ccccc1Cl [Example 220, 6-(2-chlorophenyl)-2-{[4-(2,3-dihydroimidazo[2,1-b][1,3]thiazol-6-yl)phenyl]amino}imidazo[1,2-a]pyrimido[5,4-e]pyrimidin-5(6H)-one] | 0.01 to 0.1 µM |
| CC1SC(c2ccc(Nc3ncc4c(=O)n(-c5ccccc5Cl)c5nccn5c4n3)cc2)NC1=O (stereo not drawn) [Example 221, 6-(2-chlorophenyl)-2-{[4-(5-methyl-4-oxo-1,3-thiazolidin-2-yl)phenyl]amino}imidazo[1,2-a]pyrimido[5,4-e]pyrimidin-5(6H)-one] | 0.01 to 0.1 µM |
| O=c1c2cnc(Nc3ccc(-c4cn5ccsc5n4)cc3)nc2n2ccnc2n1-c1ccccc1Cl [Example 222, 6-(2-chlorophenyl)-2-{[4-(imidazo[2,1-b][1,3]thiazol-6-yl)phenyl]amino}imidazo[1,2-a]pyrimido[5,4-e]pyrimidin-5(6H)-one] | 0.01 to 0.1 µM |
| O=c1[nH][nH]c2c(-c3ccc(Nc4ncc5c(=O)n(-c6ccccc6Cl)c6nccn6c5n4)cc3)cccc12 [Example 223, 6-(2-chlorophenyl)-2-{[4-(3-oxo-2,3-dihydro-1H-indazol-7-yl)phenyl]amino}imidazo[1,2-a]pyrimido[5,4-e]pyrimidin-5(6H)-one] | < 0.01 µM |
| O=c1c2cnc(Nc3ccc4c(c3)CN(CC(F)F)CC43CC3)nc2n2ccnc2n1-c1c(F)cccc1Cl [Example 224, 6-(2-chloro-6-fluorophenyl)-2-{[2′-(2,2-difluoroethyl)-2′,3′-dihydro-1′H-spiro[cyclopropane-1,4′-isoquinolin]-7′-yl]amino}imidazo[1,2-a]pyrimido[5,4-e]pyrimidin-5(6H)-one] | < 0.01 µM |
| O=c1c2cnc(Nc3ccc4c(c3)CN(CCF)CC43CC3)nc2n2ccnc2n1-c1c(F)cccc1Cl [Example 225, 6-(2-chloro-6-fluorophenyl)-2-{[2′-(2-fluoroethyl)-2′,3′-dihydro-1′H-spiro[cyclopropane-1,4′-isoquinolin]-7′-yl]amino}imidazo[1,2-a]pyrimido[5,4-e]pyrimidin-5(6H)-one] | < 0.01 µM |
| CCN(CC)C1Cc2ccc(Nc3ncc4c(=O)n(-c5c(F)cccc5Cl)c5nccn5c4n3)cc2C1 (stereo not drawn) [Example 226, 6-(2-chloro-6-fluorophenyl)-2-{[2-(diethylamino)-2,3-dihydro-1H-inden-5-yl]amino}imidazo[1,2-a]pyrimido[5,4-e]pyrimidin-5(6H)-one] | < 0.01 µM |
| O=c1c2cnc(Nc3ccc4c(c3)CC(NC3CC3)C4)nc2n2ccnc2n1-c1c(F)cccc1Cl (stereo not drawn) [Example 227, 6-(2-chloro-6-fluorophenyl)-2-{[2-(cyclopropylamino)-2,3-dihydro-1H-inden-5-yl]amino}imidazo[1,2-a]pyrimido[5,4-e]pyrimidin-5(6H)-one] | < 0.01 µM |

The next lines start with the values.

| Ki | Compound |
| --- | --- |
| < 0.01 µM | O=c1c2cnc(Nc3ccc(N4CCNCC4)nc3)nc2n2ccnc2n1-c1c(Cl)cccc1Cl [Example 198, 6-(2,6-dichlorophenyl)-2-{[6-(piperazin-1-yl)pyridin-3-yl]amino}imidazo[1,2-a]pyrimido[5,4-e]pyrimidin-5(6H)-one] |
| < 0.01 µM | O=c1c2cnc(Nc3ccc4cn[nH]c4c3)nc2n2ccnc2n1-c1c(Cl)cccc1Cl [Example 199, 6-(2,6-dichlorophenyl)-2-(1H-indazol-6-ylamino)imidazo[1,2-a]pyrimido[5,4-e]pyrimidin-5(6H)-one] |
| < 0.01 µM | O=C(O[C@@H]1CCCN2CCCCC12)c1ccc(Nc2ncc3c(=O)n(-c4c(Cl)cccc4Cl)c4nccn4c3n2)cc1 (stereo partly drawn) [Example 200, (1R)-octahydro-2H-quinolizin-1-yl 4-{[6-(2,6-dichlorophenyl)-5-oxo-5,6-dihydroimidazo[1,2-a]pyrimido[5,4-e]pyrimidin-2-yl]amino}benzoate] |
| < 0.01 µM | CN(CCOC(=O)c1ccc(Nc2ncc3c(=O)n(-c4c(Cl)cccc4Cl)c4nccn4c3n2)cc1)C1CC1 [Example 201, 2-[cyclopropyl(methyl)amino]ethyl 4-{[6-(2,6-dichlorophenyl)-5-oxo-5,6-dihydroimidazo[1,2-a]pyrimido[5,4-e]pyrimidin-2-yl]amino}benzoate] |
| < 0.01 µM | CCN1C[C@H]2C[C@@H](C1)CN(C(=O)c1ccc(Nc3ncc4c(=O)n(-c5c(Cl)cccc5Cl)c5nccn5c4n3)cc1)C2 [Example 202, 6-(2,6-dichlorophenyl)-2-[(4-{[(1R,5S)-7-ethyl-3,7-diazabicyclo[3.3.1]non-3-yl]carbonyl}phenyl)amino]imidazo[1,2-a]pyrimido[5,4-e]pyrimidin-5(6H)-one] |
| < 0.01 µM | O=c1c2cnc(Nc3cc(F)c(N4CCNCC4)c(F)c3)nc2n2ccnc2n1-c1ccccc1Cl [Example 203, 6-(2-chlorophenyl)-2-{[3,5-difluoro-4-(piperazin-1-yl)phenyl]amino}imidazo[1,2-a]pyrimido[5,4-e]pyrimidin-5(6H)-one] |
| < 0.01 µM | O=c1c2cnc(Nc3ccc(N4CCN5CCC[C@@H]5C4)cc3)nc2n2ccnc2n1-c1ccccc1Cl [Example 204, 6-(2-chlorophenyl)-2-({4-[(8aR)-hexahydropyrrolo[1,2-a]pyrazin-2(1H)-yl]phenyl}amino)imidazo[1,2-a]pyrimido[5,4-e]pyrimidin-5(6H)-one] |
| < 0.01 µM | O=c1c2cnc(Nc3ccc4c(c3)CNCC43CC3)nc2n2ccnc2n1-c1ccc(O)cc1 [Example 205, 2-(2′,3′-dihydro-1′H-spiro[cyclopropane-1,4′-isoquinolin]-7′-ylamino)-6-(4-hydroxyphenyl)imidazo[1,2-a]pyrimido[5,4-e]pyrimidin-5(6H)-one] |
| < 0.01 µM | CS(=O)(=O)N1Cc2cc(Nc3ncc4c(=O)n(-c5c(Cl)cccc5Cl)c5nccn5c4n3)ccc2C2(CC2)C1 [Example 206, 6-(2,6-dichlorophenyl)-2-{[2′-(methylsulfonyl)-2′,3′-dihydro-1′H-spiro[cyclopropane-1,4′-isoquinolin]-7′-yl]amino}imidazo[1,2-a]pyrimido[5,4-e]pyrimidin-5(6H)-one] |
| < 0.01 µM | CC(=O)N1Cc2cc(Nc3ncc4c(=O)n(-c5c(Cl)cccc5Cl)c5nccn5c4n3)ccc2C2(CC2)C1 [Example 207, 2-[(2′-acetyl-2′,3′-dihydro-1′H-spiro[cyclopropane-1,4′-isoquinolin]-7′-yl)amino]-6-(2,6-dichlorophenyl)imidazo[1,2-a]pyrimido[5,4-e]pyrimidin-5(6H)-one] |

Reference: patent publication US8710065B2, “Tricyclic inhibitors of kinases” (AbbVie Inc., priority 2011, dated 2014)
